Test results as given in article PMC11520566, “Discovery of pyrazole-based analogs as CDK2 inhibitors with apoptotic-inducing activity: design, synthesis and molecular dynamics study” (RSC Advances, 2024).

Legend:
[1] = test system: MOLT-4; assay: NCI 60 five dose assay, Leukemia; assay type: cell-based, human
[2] = molecular target: T1, CDK2/cyclin A2 (Homo sapiens, UniProt P24941); assay: In vitro CDK2/cyclin A2 enzyme inhibition assay (ADP-Glo); assay type: biochemical
T1 construct: purchased Promega
Method: The studied pyrazoles 2a–g, 4, 7a–d, 8a and b, 9, and 10 were assessed for their in vitro CDK2/cyclin A2 enzyme inhibition assay at a concentration of 50 μM using the Promega CDK2/cyclinA2 kinase enzyme system coupled with the ADP-Glo assay.[32,33] The percentage enzyme activity was the lowest for five compounds, namely 4, 7a, 7d, 8a, and 9 with values of 24.7%, 17.5%, 11.5%, 27.1% and 14.5%, respectively.
The in vitro assay of CDK2/cyclin A2 protein kinase was carried out on all the synthesized compounds. The kinase assay was performed in a 96-well white plate with a reaction volume of […]. The reaction was performed in four steps as follows: 2.5 μL of the test compounds or 5% DMSO and 5 μL of CDK2/cyclin A2 enzyme (1.6 ng) was added, and then incubated at room temperature for 30 min. Then, 5 μL of 50 μM ATP. 0.1 μg μL^−1 histone H1 was added and incubated for 10 min. The reaction was stopped by adding 12.5 μL of ADP-Glo™ Reagent and incubated for 40 min. Then 25 μL of kinase detection reagent was added to each well and incubated for 60 min before detection with luminescence (Integration time 0.5–1 s).[25,32,33]

[3] = test system: EKVX; assay: NCI 60 five dose assay, Non-small cell lung cancer; assay type: cell-based, human
[4] = test system: SF-539; assay: NCI 60 five dose assay, CNS cancer; assay type: cell-based, human
[5] = test system: DU-145; assay: NCI 60 five dose assay, Prostate cancer; assay type: cell-based, human
[6] = test system: BT-549; assay: NCI 60 five dose assay, Breast cancer; assay type: cell-based, human
[7] = test system: UACC-257; assay: NCI 60 five dose assay, Melanoma; assay type: cell-based, human
[8] = test system: MDA-MB-468; assay: NCI 60 five dose assay, Breast cancer
[9] = test system: M14; assay: NCI 60 five dose assay, Melanoma; assay type: cell-based, human
[10] = test system: HCT-116; assay: NCI 60 five dose assay, Colon cancer; assay type: cell-based, human
[11] = test system: CDK2; assay: Western blot of CDK2 expression in HCT-116 cells; assay type: cell-based; conditions: 3 μM, 48 h, vs vehicle treated cells
Source text: The method of sodium dodecyl sulfate polyacrylamide gel electrophoresis (SDS-PAGE) is employed to separate proteins based on their size. When combined with western blotting (immunoblotting), both techniques are commonly used to identify the presence and/or relative abundance of a specific protein within a sample containing a complex mixture of proteins.[36] In this process, each sample's total protein content is loaded onto a gel and separated by electrophoresis, allowing proteins to migrate through the gel matrix under the influence of an electric current. To facilitate protein migration, the proteins are initially denatured and given a negative charge by exposure to a detergent like SDS. A molecular weight marker with known-sized bands assists in identifying proteins of interest. […] Typically, the secondary antibody is linked to an enzyme that generates luminescence upon reacting with its substrate. The intensity of the luminescence, directly correlating with the amount of protein that interacted with the antibody, is captured by a Bio-Rad Imager.[36] […]
HCT-116 cells were treated with either 3 μM of compound 4 and 1 μM of compound 9 and incubated 48 h. The cells were lysed by 1× RIPA buffer containing protease and phosphatase inhibitors to quantify the protein concentration by BCA protein assay. […]

[12] = test system: NCI-H460; assay: NCI 60 five dose assay, Non-small cell lung cancer; assay type: cell-based, human
[13] = Homo sapiens, read-out: LC50 (the source's name)

`CC(=NNc1ccc(S(N)(=O)=O)cc1)c1ccc(NN=C2C(=O)NN=C2Nc2ccccc2)cc1` [Compound 4, 4-(2-(1-(4-(2-(5-oxo-3-(phenylamino)-1,5-dihydro-4H-pyrazol-4-ylidene)hydrazinyl)phenyl)ethylidene)hydrazinyl)benzene sulfonamide] was tested. Which GI50 ([1]; Homo sapiens) did it give?
The GI50 was 1.64 µM.

And the CC50 [1, 13]?
Its CC50 is 34.9 µM.

And the “Percent Growth” value ([1]; Log10 Concentration -4.0 Molar)?
Its value is -69%.

And the “Percent Growth” value ([1]; Log10 Concentration -5.0 Molar)?
Its value is -28%.

And the “Percent Growth” value ([1]; Log10 Concentration -6.0 Molar)?
Its value is 71%.

What about the “Percent Growth” value ([1]; Log10 Concentration -7.0 Molar) of the same compound?
Its value is 95%.

What about the “Percent Growth” value ([1]; Log10 Concentration -8.0 Molar) of the same compound?
The value was 96%.

And the percentage enzyme activity ([2]; at 50 μM)?
The percentage enzyme activity was 24.7%.

What about the IC50 ([2]; n = 3, read-out: IC50 against CDK2/cyclin A2) of the same compound?
Its IC50 is 3.82 µM.

What about the Relative activity ([2]; supplement S1, DMSO = 100, screen at 50 μM) of the same compound?
The Relative activity was 24.7.

What about the GI50 ([3]; Homo sapiens) of the same compound?
Its GI50 is 5.39 µM.

And the CC50 [3, 13]?
Its CC50 is > 100 µM.

What about the “Percent Growth” value ([3]; Log10 Concentration -4.0 Molar) of the same compound?
The value was -48%.

And the “Percent Growth” value ([3]; Log10 Concentration -5.0 Molar)?
Its value is 36%.

And the “Percent Growth” value ([3]; Log10 Concentration -6.0 Molar)?
Its value is 89%.

And the “Percent Growth” value ([3]; Log10 Concentration -7.0 Molar)?
Its value is 102%.

What about the “Percent Growth” value ([3]; Log10 Concentration -8.0 Molar) of the same compound?
Its value is 98%.

What about the GI50 ([4]; Homo sapiens) of the same compound?
The GI50 was 1.58 µM.

What about the CC50 [4, 13] of the same compound?
The CC50 was 8.56 µM.

And the “Percent Growth” value ([4]; Log10 Concentration -4.0 Molar)?
Its value is -100%.

What about the “Percent Growth” value ([4]; Log10 Concentration -5.0 Molar) of the same compound?
Its value is -59%.

And the “Percent Growth” value ([4]; Log10 Concentration -6.0 Molar)?
Its value is 77%.

What about the “Percent Growth” value ([4]; Log10 Concentration -7.0 Molar) of the same compound?
The value was 94%.

And the “Percent Growth” value ([4]; Log10 Concentration -8.0 Molar)?
Its value is 89%.

And the GI50 ([5]; Homo sapiens)?
The GI50 was 3.21 µM.

What about the CC50 [5, 13] of the same compound?
Its CC50 is 32.2 µM.

And the “Percent Growth” value ([5]; Log10 Concentration -4.0 Molar)?
Its value is -100%.

And the “Percent Growth” value ([5]; Log10 Concentration -5.0 Molar)?
Its value is 2%.

What about the “Percent Growth” value ([5]; Log10 Concentration -6.0 Molar) of the same compound?
Its value is 99%.

And the “Percent Growth” value ([5]; Log10 Concentration -7.0 Molar)?
Its value is 106%.

And the “Percent Growth” value ([5]; Log10 Concentration -8.0 Molar)?
The value was 100%.

And the GI50 ([6]; Homo sapiens)?
The GI50 was 2.83 µM.

And the CC50 [6, 13]?
Its CC50 is 31.1 µM.

What about the “Percent Growth” value ([6]; Log10 Concentration -4.0 Molar) of the same compound?
Its value is -100%.

And the “Percent Growth” value ([6]; Log10 Concentration -5.0 Molar)?
Its value is -1%.

And the “Percent Growth” value ([6]; Log10 Concentration -6.0 Molar)?
Its value is 92%.

And the “Percent Growth” value ([6]; Log10 Concentration -7.0 Molar)?
The value was 105%.

And the “Percent Growth” value ([6]; Log10 Concentration -8.0 Molar)?
Its value is 94%.

What about the GI50 ([7]; Homo sapiens) of the same compound?
The GI50 was 3.97 µM.

And the CC50 [7, 13]?
Its CC50 is 75.5 µM.

And the “Percent Growth” value ([7]; Log10 Concentration -4.0 Molar)?
The value was -59%.

And the “Percent Growth” value ([7]; Log10 Concentration -5.0 Molar)?
The value was 17%.

What about the “Percent Growth” value ([7]; Log10 Concentration -6.0 Molar) of the same compound?
The value was 99%.

What about the “Percent Growth” value ([7]; Log10 Concentration -7.0 Molar) of the same compound?
The value was 93%.

What about the “Percent Growth” value ([7]; Log10 Concentration -8.0 Molar) of the same compound?
Its value is 89%.

What about the GI50 ([8]; Homo sapiens, MDA-MB-468) of the same compound?
Its GI50 is 1.4 µM.

What about the CC50 ([8]; Homo sapiens, MDA-MB-468, read-out: LC50) of the same compound?
Its CC50 is 6.41 µM.

What about the TGI ([8]; MDA-MB-468) of the same compound?
The TGI was 3 µM.

And the GI50 ([9]; Homo sapiens)?
The GI50 was 2.83 µM.

And the CC50 [9, 13]?
The CC50 was 35.1 µM.

And the “Percent Growth” value ([9]; Log10 Concentration -4.0 Molar)?
The value was -80%.

And the “Percent Growth” value ([9]; Log10 Concentration -5.0 Molar)?
The value was -14%.

And the “Percent Growth” value ([9]; Log10 Concentration -6.0 Molar)?
The value was 103%.

What about the “Percent Growth” value ([9]; Log10 Concentration -7.0 Molar) of the same compound?
The value was 101%.

What about the “Percent Growth” value ([9]; Log10 Concentration -8.0 Molar) of the same compound?
Its value is 93%.

And the GI50 ([10]; Homo sapiens)?
Its GI50 is 3.04 µM.

What about the CC50 [10, 13] of the same compound?
Its CC50 is 32 µM.

What about the “Percent Growth” value ([10]; Log10 Concentration -4.0 Molar) of the same compound?
The value was -100%.

And the “Percent Growth” value ([10]; Log10 Concentration -5.0 Molar)?
The value was 1%.

What about the “Percent Growth” value ([10]; Log10 Concentration -6.0 Molar) of the same compound?
The value was 96%.

What about the “Percent Growth” value ([10]; Log10 Concentration -7.0 Molar) of the same compound?
Its value is 104%.

And the “Percent Growth” value ([10]; Log10 Concentration -8.0 Molar)?
The value was 98%.

What about the “expression of CDK-2 (western blot)” value [11] of the same compound?
The value was “inhibitions in the expression of CDK-2”.

And the GI50 ([12]; Homo sapiens)?
The GI50 was 3.21 µM.

What about the CC50 [12, 13] of the same compound?
The CC50 was 45.3 µM.

And the “Percent Growth” value ([12]; Log10 Concentration -4.0 Molar)?
Its value is -78%.

And the “Percent Growth” value ([12]; Log10 Concentration -5.0 Molar)?
The value was 4%.

And the “Percent Growth” value ([12]; Log10 Concentration -6.0 Molar)?
Its value is 97%.

And the “Percent Growth” value ([12]; Log10 Concentration -7.0 Molar)?
Its value is 103%.

What about the “Percent Growth” value ([12]; Log10 Concentration -8.0 Molar) of the same compound?
The value was 102%.
